The results in this text go back to ChEMBL document CHEMBL4308908, “Lamellarin-inspired potent topoisomerase I inhibitors with the unprecedented benzo[g][1]benzopyrano[4,3-b]indol-6(13H)-one scaffold” (Bioorg Med Chem, 2019).

Experiment [1] can be described thus: Antiproliferative activity against human BSY1 cells after 48 hrs by SRB assay. The class given is functional. Conditions: BSY-1, 48 h. In general terms: In SRB staining, fixed cells bind dye roughly in proportion to their protein.
Experiment [2] concerns SF-539. The experiment is described as follows: Antiproliferative activity against human SF539 cells after 48 hrs by SRB assay. Conditions: SF-539, 48 h. The class given is functional.
Experiment [3] deals with HCT-116. Kind of experiment: Antiproliferative activity against human HCT116 cells after 48 hrs by SRB assay. Particulars: HCT-116, 48 h. It is filed as functional.
Experiment [4] concerns NCI-H23. The experiment is described as follows: Antiproliferative activity against human NCI-H23 cells after 48 hrs by SRB assay. Particulars: NCI-H23, 48 h. It is filed as functional.
For experiment [5], the system named is DMS-114. Kind of experiment: Antiproliferative activity against human DMS114 cells after 48 hrs by SRB assay. Particulars: DMS-114, 48 h. It is filed as functional.
The test system of experiment [6] is LOX IMVI. The experiment is described as follows: Antiproliferative activity against human LOXIMVI cells after 48 hrs by SRB assay. The class given is functional.
Experiment [7] has as its system OVCAR-4. Kind of experiment: Antiproliferative activity against human OVCAR4 cells after 48 hrs by SRB assay. The class given is functional. Conditions: OVCAR-4, 48 h.
The subject of experiment [8] is OVCAR-8. The experiment is described as follows: Antiproliferative activity against human OVCAR8 cells after 48 hrs by SRB assay. The class given is functional. Conditions: OVCAR-8, 48 h.
For experiment [9], the system named is Colon 26. The experiment is described as follows: Antitumor activity against mouse Colon 26 cells implanted in BALB/c mouse at 50 mg/kg, iv administered every 2 days for 7 times starting 1 day after tumor implantation and measured daily until day 20. It is filed as functional, organism-based.

Molecules are shown by their SMILES. The source made the active and inactive calls. No cut-off for these calls is given here.

Turning to `COc1cc2c(ccc3c4c(=O)oc5cc(OC(=O)[C@@H](N)C(C)C)c(OC)cc5c4n(C)c23)cc1OC(=O)[C@@H](N)C(C)C.O=C(O)C(F)(F)F.O=C(O)C(F)(F)F`, the GI50 in experiment [1] was 38 nM; in experiment [2] it was 4.17 nM; in [3] (read-out: GI50) it was 15 nM; in experiment [3] (read-out: pGI50 (converted)), 15.5 nM; in experiment [4], 4.9 nM; in experiment [5] it was 4.37 nM. The GI50 was 2.5 nM in [6] (read-out: GI50), 2.51 nM in experiment [6] (read-out: pGI50 (converted)), 36.3 nM in [7] and 13.5 nM in experiment [8]. In addition, the outcome in [9] was Active.
